One series relates to neuron. To be noted: not told; cited from earlier work.
The target of series [1] is T1, BoNT/A LC (Clostridium botulinum, UniProt P0DPI0). Put plainly: biochemical. The class given is biochemical.
The next series deals with BoNT/B LC (Clostridium botulinum, UniProt P10844). Format: biochemical.
For another series, the target named is MMP-9 (Homo sapiens, UniProt P14780). The class given is biochemical.
Another series has as its system chick neuronal assay. Format: cell-based.
In a further series the target is T2, human MMP-1 (Homo sapiens, UniProt P03956).
T2 sequence (P03956 100-469): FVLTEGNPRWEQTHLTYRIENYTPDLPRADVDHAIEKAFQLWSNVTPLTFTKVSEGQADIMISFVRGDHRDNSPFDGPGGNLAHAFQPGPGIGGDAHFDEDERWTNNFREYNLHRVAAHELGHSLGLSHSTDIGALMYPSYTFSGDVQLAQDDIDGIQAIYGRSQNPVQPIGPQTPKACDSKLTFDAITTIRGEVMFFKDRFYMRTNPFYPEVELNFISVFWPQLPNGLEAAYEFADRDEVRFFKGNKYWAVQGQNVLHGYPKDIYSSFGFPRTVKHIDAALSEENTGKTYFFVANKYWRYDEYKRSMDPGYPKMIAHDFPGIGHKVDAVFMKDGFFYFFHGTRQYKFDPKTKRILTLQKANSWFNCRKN
Format: biochemical.

Series [2] concerns the target anthrax lethal factor (LF) (Bacillus anthracis, UniProt P15917). The experiment in a line: biochemical.
Series [3] concerns the target T1, BoNT/A LC. Put plainly: biochemical.

Each structure is given as a SMILES string. Entries after “also recorded” stand apart in the source; their conditions may differ. Structures can show the parent of a compound that is named as a salt. Where two headings read alike, the source gives them in different places.

T1 sequence (P0DPI0 2-448 limits assumed): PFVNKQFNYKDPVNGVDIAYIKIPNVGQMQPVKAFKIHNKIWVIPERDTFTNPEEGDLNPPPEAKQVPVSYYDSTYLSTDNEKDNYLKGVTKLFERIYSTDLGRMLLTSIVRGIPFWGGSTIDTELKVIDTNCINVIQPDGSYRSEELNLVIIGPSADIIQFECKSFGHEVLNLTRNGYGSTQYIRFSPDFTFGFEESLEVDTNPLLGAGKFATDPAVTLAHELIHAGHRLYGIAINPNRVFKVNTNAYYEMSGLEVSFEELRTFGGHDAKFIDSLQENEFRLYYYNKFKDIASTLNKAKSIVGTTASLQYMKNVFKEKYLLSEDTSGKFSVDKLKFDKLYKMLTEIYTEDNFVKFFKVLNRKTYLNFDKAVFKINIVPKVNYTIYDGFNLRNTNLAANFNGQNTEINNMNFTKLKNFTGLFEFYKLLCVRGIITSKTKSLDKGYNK
anthrax lethal factor (LF), sequence (P15917 34-809 limits assumed): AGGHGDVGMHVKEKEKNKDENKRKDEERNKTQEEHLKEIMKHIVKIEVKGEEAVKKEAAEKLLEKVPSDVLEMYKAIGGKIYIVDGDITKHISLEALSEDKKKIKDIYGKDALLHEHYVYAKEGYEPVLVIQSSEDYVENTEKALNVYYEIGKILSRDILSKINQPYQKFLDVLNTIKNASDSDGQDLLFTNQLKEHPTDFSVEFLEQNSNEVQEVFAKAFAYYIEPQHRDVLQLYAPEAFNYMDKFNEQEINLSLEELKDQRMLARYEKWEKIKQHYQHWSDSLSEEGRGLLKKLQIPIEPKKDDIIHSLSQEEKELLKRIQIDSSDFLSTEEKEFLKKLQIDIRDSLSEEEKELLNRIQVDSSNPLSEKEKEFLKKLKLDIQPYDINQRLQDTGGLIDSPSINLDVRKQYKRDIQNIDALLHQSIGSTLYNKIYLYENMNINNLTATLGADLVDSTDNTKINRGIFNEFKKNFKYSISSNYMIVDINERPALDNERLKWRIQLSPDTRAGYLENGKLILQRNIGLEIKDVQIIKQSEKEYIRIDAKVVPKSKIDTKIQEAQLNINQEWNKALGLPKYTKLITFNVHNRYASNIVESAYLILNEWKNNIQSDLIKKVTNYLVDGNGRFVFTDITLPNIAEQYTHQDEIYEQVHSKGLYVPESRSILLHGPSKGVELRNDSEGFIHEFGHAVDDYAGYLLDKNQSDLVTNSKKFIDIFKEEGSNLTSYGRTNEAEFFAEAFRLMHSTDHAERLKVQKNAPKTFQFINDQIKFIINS
BoNT/B LC, sequence (P10844 2-441 limits assumed): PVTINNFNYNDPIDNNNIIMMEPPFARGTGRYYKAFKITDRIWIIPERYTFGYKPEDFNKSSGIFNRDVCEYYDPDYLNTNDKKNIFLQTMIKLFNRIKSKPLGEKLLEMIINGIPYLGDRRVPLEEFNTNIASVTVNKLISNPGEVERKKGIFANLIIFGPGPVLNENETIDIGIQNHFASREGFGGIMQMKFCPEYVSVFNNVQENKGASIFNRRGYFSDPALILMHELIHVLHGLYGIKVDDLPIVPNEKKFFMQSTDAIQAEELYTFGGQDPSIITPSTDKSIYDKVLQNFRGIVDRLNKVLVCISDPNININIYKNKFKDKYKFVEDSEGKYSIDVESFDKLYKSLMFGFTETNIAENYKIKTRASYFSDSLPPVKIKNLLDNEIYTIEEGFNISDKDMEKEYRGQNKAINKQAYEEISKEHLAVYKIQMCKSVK
MMP-9, sequence (P14780 94-707): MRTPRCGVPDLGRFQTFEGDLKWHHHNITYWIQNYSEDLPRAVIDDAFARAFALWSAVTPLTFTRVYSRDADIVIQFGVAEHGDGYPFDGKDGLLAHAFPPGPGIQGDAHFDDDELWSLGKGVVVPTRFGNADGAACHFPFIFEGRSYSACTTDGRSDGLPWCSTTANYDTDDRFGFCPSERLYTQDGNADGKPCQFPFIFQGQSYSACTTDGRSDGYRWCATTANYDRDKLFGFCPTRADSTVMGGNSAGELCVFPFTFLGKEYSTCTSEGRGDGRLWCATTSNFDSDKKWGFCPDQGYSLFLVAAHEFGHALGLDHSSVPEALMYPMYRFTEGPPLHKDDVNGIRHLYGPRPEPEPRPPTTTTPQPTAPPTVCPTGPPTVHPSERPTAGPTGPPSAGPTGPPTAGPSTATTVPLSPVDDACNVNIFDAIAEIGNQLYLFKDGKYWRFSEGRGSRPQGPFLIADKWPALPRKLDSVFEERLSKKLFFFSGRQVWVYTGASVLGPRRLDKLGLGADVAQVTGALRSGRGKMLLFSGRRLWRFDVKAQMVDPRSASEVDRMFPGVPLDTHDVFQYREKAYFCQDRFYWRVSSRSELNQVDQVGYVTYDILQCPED

As to `Cl.Cl.N=C(N)c1ccc(Oc2ccc(-c3cc4ccc(C(=N)N)cc4[nH]3)cc2)cc1` [Compound 5], the neuron permeability entry in the series on neuron was “neuron-permeable”.
On to `N#Cc1ccc(Oc2ccc(-c3cc4ccc(C(=N)N)cc4[nH]3)cc2)cc1` [Compound 11, 2-(4-(4-Cyanophenoxy)phenyl)-1H-indole-6-carboximidamide hydrochloride salt], for which the “inhibitory activity against BoNT/A LC (in words)” value (“inhibitory activity … (in words)” below) on BoNT/A LC [1] is on record as “no activity”.
Turning to `CN(C)CC/N=C(\N)c1ccc(Oc2ccc(-c3cc4ccc(/C(N)=N/CCN(C)C)cc4[nH]3)cc2)cc1` [Compound 12], the “inhibitory activity against BoNT/B” value against BoNT/B LC is reported as “no inhibitory activities; also recorded: does not inhibit”. Moreover, the “inhibitory activity against MMP-9” value against MMP-9 is reported as “no inhibitory activities; also recorded: does not inhibit”. At BoNT/A LC [1], the “dependence of inhibitory activity on Zn concentration” value is “independent of the Zn concentration” and the “fold more potent than the lead structure (compound 5) against BoNT/A LC” value is 4.4 fold. Moreover, the “cellular activity in a chick neuronal assay” value with chick neuronal assay is given as “showed cellular activity”. Moreover, the “inhibitory activity against human MMP-1” value at human MMP-1 is listed as “no inhibitory activities; also recorded: does not inhibit”.
In the case of `OC1CN=C(c2ccc(Oc3ccc(-c4cc5ccc(C6=NCC(O)CN6)cc5[nH]4)cc3)cc2)NC1` (stereo not drawn) [Compound 15, 2-(4-(4-(6-(5-Hydroxy-1,4,5,6-tetrahydropyrimidin-2-yl)-1H-indol-2-yl)phenoxy)phenyl)-1,4,5,6-tetrahydropyrimidin-5-ol], the “selectivity for BoNT/A LC versus anthrax LF” value at BoNT/A LC [1] is recorded as “over ten-fold”.
On to `N#Cc1ccc(Oc2ccc(-c3cc4ccc(C5=NCCN5)cc4[nH]3)cc2)c(Cl)c1` [Compound 24c, 2-(4-(2-Chloro-4-cyanophenoxy)phenyl)-6-(4,5-dihydro-1H-imidazol-2-yl)indole], for which, at BoNT/A LC [1], the “fold less potent than bis-imidazoline 13 against BoNT/A LC” value is given as 2.4 fold and the “inhibitory activity … (in words)” value is “maintain inhibitory activity”.
For the compound `Clc1ccc(Oc2ccc(-c3cc4ccc(C5=NCCN5)cc4[nH]3)cc2)c(Cl)c1` [Compound 29, 2-(4-(2,4-Dichlorophenoxy)phenyl)-6-(4,5-dihydro-1H-imidazol-2-yl)-1H-indole], the “inhibitory activity … (in words)” value at BoNT/A LC [1] is “maintain inhibitory activity”.
Usually IC50 stands for the concentration that gives 50% inhibition. High values mean weaker potency, low ones greater potency. Take `N#Cc1ccc2cc(-c3ccc(F)cc3)[nH]c2c1` [Compound 39, 2-(4-Fluorophenyl)-1H-indole-6-carbonitrile]: the IC50 (on BoNT/A LC [1]; in series [2]) was over 100 µM throughout.
For `NC(=O)c1ccc2cc(-c3ccc(F)cc3)[nH]c2c1` [Compound 40a, 2-(4-Fluorophenyl)-1H-indole-6-carboxamide], the IC50 (at BoNT/A LC [1]; in series [2]) was over 100 µM in each case.
For `N=C(N)c1ccc2cc(-c3ccc(F)cc3)[nH]c2c1` [Compound 40b, 2-(4-Fluorophenyl)-1H-indole-6-carboximidamide], the IC50 against BoNT/A LC [1] is over 100 µM; in series [2], 48 µM.
`Fc1ccc(-c2cc3ccc(C4=NCCN4)cc3[nH]2)cc1` [Compound 40c, 6-(4,5-Dihydro-1H-imidazol-2-yl)-2-(4-fluorophenyl)-1H-indole]: the 50% inhibitory concentration (IC50) on BoNT/A LC [1] was over 100 µM; in series [2], 40 µM.
For `COc1ccc(-c2cc3ccc(C(N)=O)cc3[nH]2)cc1` [Compound 43a, 2-(4-Methoxyphenyl)-1H-indole-6-carboxamide], in that order: over 100 µM and over 100 µM.
Consider `COc1ccc(-c2cc3ccc(C(=N)N)cc3[nH]2)cc1` [Compound 43b, 2-(4-Methoxyphenyl)-1H-indole-6-carboximidamide], for which the IC50 (on BoNT/A LC [1]; in series [2]) was over 100 µM throughout.
`COc1ccc(-c2cc3ccc(C4=NCCN4)cc3[nH]2)cc1` [Compound 43c, 2-(4-Methoxyphenyl)-6-(4,5-dihydro-1H-imidazol-2-yl)-1H-indole]: the figures for the IC50 (on BoNT/A LC [1]; in series [2]) were 45 µM and 61 µM, respectively.
As for `c1cc(-c2cc3ccc(C4=NCCN4)cc3[nH]2)ccc1C1=NCCN1` [Compound 44a, 6-(4,5-Dihydro-1H-imidazol-2-yl)-2-(4-(4,5-dihydro-1H-imidazol-2-yl)phenyl)-1H-indole], on BoNT/B LC, the “inhibitory activity against BoNT/B” value was “no inhibitory activities”. In addition, at MMP-9, the “inhibitory activity against MMP-9” value was “no inhibitory activities”. In addition, the “inhibitory activity against human MMP-1” value on human MMP-1 is reported as “no inhibitory activities”.
Consider `c1cc(-c2cc3ccc(C4=NCCN4)cc3s2)ccc1C1=NCCN1` [Compound 46a, 2-(4-(6-(4,5-Dihydro-1H-imidazol-2-yl)benzo[b]thiophen-2-yl)phenyl)-4,5-dihydro-1H-imidazole], for which, at BoNT/A LC [3], the midpoint of inhibition, the IC50, lay at 28 µM.
On to `NC(=O)c1ccc2cc(-c3ccc(F)cn3)sc2c1` [Compound 49, 2-(5-Fluoro-2-pyridyl)-6-benzo[b]thiophenecarboxamide], for which the 50% inhibitory concentration (IC50) (against BoNT/A LC [1]; in series [2]) was over 100 µM throughout.
Regarding `NCCNc1ccc(-c2cc3ccc(C4=NCCN4)cc3s2)nc1` [Compound 50, N^1–(6-(6-(4,5-Dihydro-1H-imidazol-2-yl)benzo[b]thiophen-2-yl)pyridine-3-yl)ethane-1,2-diamine], the IC50 in series [2] was over 100 µM.

Values taken from PMC2841792 (Journal of medicinal chemistry, 2010).
